Measured values taken from US20120128593A1, “USE OF A MAGNETIC RESONANCE IMAGING MEDIUM COMPRISING HYPERPOLARIZED 13C PYRUVATE FOR THE DETECTION OF INFLAMMATION OR INFECTION” (priority 2010, published 2012).

Test: T1 relaxation in human full blood
Type: physicochemical
Conditions: human full blood at 37° C.

T1 relaxation: about 42 s
SMILES: CC(=O)C(=O)O [[1-^13C]pyruvate, ^13C1-pyruvate]
